Target: T1, KOD DNA Polymerase (Thermococcus kodakarensis, UniProt P77933, DEL407-766/DEL852-1388)
T1 construct: purchased TOYOBO CO., LTD
Test: PCR with KOD DNA Polymerase (α-type) in the presence of acidic substances
Format: biochemical, Pyrococcus sp.
Conditions: 10 kb fragment, 100 pg λDNA, 30 cycles 98°C 5 s–68°C 3 min
Method: (1) Using sodium alginate, sodium hyaluronate (manufactured by Seikagaku Kogyo), or κ carrageenan (manufactured by Sigma), the effects of these acidic substances on α-type DNA polymerase were examined. A reaction mixture comprising λDNA as a template, primers λ1 and λ8 as a primer pair, and KOD DNA Polymerase (manufactured by TOYOBO CO., LTD.) as DNA polymerase was prepared, and PCR was carried out. The composition of the reaction mixture is as follows. Composition of Reaction Mixture: KOD DNA Polymerase Buffer I (manufactured by TOYOBO CO., LTD.) 0.2 mM each of dATP, dCTP, dGTP and dTTP, 0.625 U of KOD DNA Polymerase, 100 pg of λDNA, and 5 pmol each of primers λ1 and λ8 (a final volume being 25 μl). Further, 1 μg or 2.5 μg of sodium alginate, 0.1 μg or 0.5 μg of sodium hyaluronate, or 0.1 μg or 0.25 μg of κ carrageenan was respectively added to the above reaction mixture.
The reaction in 30 cycles was carried out for each of these reaction mixtures, wherein one cycle of reaction comprises a process consisting of 98° C., 5 seconds—68° C., 3 minutes. Thereafter, 5 μl of the resulting reaction mixture was subjected to electrophoresis on 1% agarose gel containing ethidium bromide in an amount of 0.00005%, whereby an amplified fragment was confirmed.
(2) The effects on α-type DNA polymerase were also examined in the same manner as in item (1) above for sodium alginate, κ carrageenan, sodium heparan sulfate (manufactured by Sigma), sodium dermatan sulfate (manufactured by Sigma), potassium polyvinyl sulfate (manufactured by nacalaitesque) or sodium polystyrenesulfonate (two kinds: average molecular weights of 5,400 and 35,000, all manufactured by nacalaitesque). A reaction mixture comprising λDNA as a template, primers λ1 and λ8 as a primer pair, and KOD DNA Polymerase as DNA polymerase was prepared, and PCR was carried out. The composition of the reaction mixture is as follows. Composition of Reaction Mixture: KOD DNA Polymerase Buffer II (manufactured by TOYOBO CO., LTD.) 0.2 mM each of dATP, dCTP, dGTP and dTTP, 1.25 U of KOD DNA Polymerase, 100 pg of λDNA, and 10 pmol each of primers λ1 and λ8 (a final volume being 50 μl). Further, 2.5 μg or 5 μg of sodium alginate, 0.25 μg or 0.5 μg of κ carrageenan, or 125 ng, 250 ng or 375 ng of sodium dermatan sulfate, 500 ng of sodium heparan sulfate, 10 ng of potassium polyvinyl sulfate, 2.5 ng or 5 ng of sodium polystyrenesulfonate (average molecular weight: 5,400), or 5 ng of sodium polystyrenesulfonate (average molecular weight: 35,000) was respectively added to the above reaction mixture.

[1] = Buffer I, 0.625 U KOD, primers λ1/λ8, 25 μl, amount added 0.1 μg

T1 sequence (P77933 other isoform, or with tags, fused parts or gaps DEL407-766/DEL852-1388): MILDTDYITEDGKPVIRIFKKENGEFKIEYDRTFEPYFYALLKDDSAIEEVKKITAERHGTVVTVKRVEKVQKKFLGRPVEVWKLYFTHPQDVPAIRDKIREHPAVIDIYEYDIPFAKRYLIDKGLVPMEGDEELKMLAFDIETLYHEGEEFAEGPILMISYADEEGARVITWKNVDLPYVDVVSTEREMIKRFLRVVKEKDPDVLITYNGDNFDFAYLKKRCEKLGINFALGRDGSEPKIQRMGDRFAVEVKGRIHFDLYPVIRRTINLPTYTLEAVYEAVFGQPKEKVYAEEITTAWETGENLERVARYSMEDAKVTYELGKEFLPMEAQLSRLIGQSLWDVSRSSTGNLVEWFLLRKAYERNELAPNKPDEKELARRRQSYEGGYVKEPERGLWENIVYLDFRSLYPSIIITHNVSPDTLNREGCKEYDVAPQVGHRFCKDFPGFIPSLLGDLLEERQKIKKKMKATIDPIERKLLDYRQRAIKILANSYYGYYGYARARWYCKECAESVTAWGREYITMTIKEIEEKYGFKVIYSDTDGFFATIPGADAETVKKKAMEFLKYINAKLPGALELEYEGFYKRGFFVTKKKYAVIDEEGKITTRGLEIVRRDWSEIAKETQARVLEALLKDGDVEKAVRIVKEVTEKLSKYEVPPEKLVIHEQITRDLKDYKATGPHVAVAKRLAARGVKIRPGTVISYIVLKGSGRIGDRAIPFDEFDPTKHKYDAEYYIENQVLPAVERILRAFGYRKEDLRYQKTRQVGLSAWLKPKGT

sodium dermatan sulfate was tested, and the “Amplification Results” value (Buffer II, 1.25 U KOD, primers λ1/λ8, 50 μl, amount added 125 ng) was “+ (Amplification being observed)”, the “Amplification Results” value (Buffer II, 1.25 U KOD, primers λ1/λ8, 50 μl, amount added 250 ng) was “+ (Amplification being observed)” and the “Amplification Results” value (Buffer II, 1.25 U KOD, primers λ1/λ8, 50 μl, amount added 375 ng) was “+ (Amplification being observed)”.

In the case of sodium heparan sulfate, the “Amplification Results” value (Buffer II, 1.25 U KOD, primers λ1/λ8, 50 μl, amount added 500 ng) is reported as “+ (Amplification being observed)”.

For sodium hyaluronate, the “Amplification Results” value [1] was “+ (Amplification being observed)” and the “Amplification Results” value (Buffer I, 0.625 U KOD, primers λ1/λ8, 25 μl, amount added 0.5 μg) was “+ (Amplification being observed)”.

In the case of κ carrageenan, the “Amplification Results” value [1] is reported as “+ (Amplification being observed)”, the “Amplification Results” value (Buffer I, 0.625 U KOD, primers λ1/λ8, 25 μl, amount added 0.25 μg) is reported as “+ (Amplification being observed)” and the “Amplification Results” value (Buffer II, 1.25 U KOD, primers λ1/λ8, 50 μl, amount added 0.25 μg) is reported as “++ (Intensive amplification being observed)”. The “Amplification Results” value (Buffer II, 1.25 U KOD, primers λ1/λ8, 50 μl, amount added 0.5 μg) was “++ (Intensive amplification being observed)”.
